The nature of the data set: Latanoprost content per 1 mm section divided from a filled precursor tube. It is filed as physicochemical. On the procedure: (squares) unexpectedly produced a more uniform distribution of therapeutic agent latanoprost in the silicone matrix, after curing, along the entire length of the 10 cm precursor sheath, which was subsequently divided into 1 mm sections, and the latanoprost content of each sections (drug insert) determined. Extrusions carried out at room temperature (circles) and at 40° C. […] The results are significant in terms of manufacturing medically useful devices, as it is desirable to maintain a uniform content of the therapeutic agent among a plurality of drug inserts manufactured by this method.
Measurements of average latanoprost content (μg) per 1 mm section (core) divided (razor blade) from a filled precursor tube are as shown: […]

Consider one compound from US8628792B2, “Drug cores for sustained release of therapeutic agents” (Mati Therapeutics, Inc., priority 2007, dated 2014).

As for `CC(C)OC(=O)CCC/C=C\C[C@@H]1[C@@H](CC[C@@H](O)CCc2ccccc2)[C@H](O)C[C@@H]1O` [Latanoprost], the “average latanoprost content per 1 mm section (Average±SD)” value stood at 20.9 ± 0.5 µg (Cold extrusion (−5° C.)) and 20.2 ± 1.9 µg (Room temperature (22° C.) extrusion).
